Measured values as given in patent US20180353403A1, “SKIN-WHITENING COSMETIC COMPOSITION CONTAINING ROSEMARY-DERIVED VERBENONE AS ACTIVE INGREDIENT” (Jeju National University Industry-Academic Cooperation …, priority 2014, published 2018).

Key:
B 16F10 melanoma cells = assay: Measurement of melanin content in B16F10 cells; assay type: cell-based, mouse
Protocol: B 16F10 melanoma cells, obtained from mice, were used as melanin-producing cells. The cultured B 16F10 cells were treated with […] α-melanocyte-stimulating hormone (α-MSH) (a control group). After 1 day, 2.5, 1.25, 0.625 mM verbenone and 2 mM arbutin (a positive control group) were added to the cells, the cells were cultured for 1 day and 2 days, respectively (experimental groups). The cultured cells were washed twice with PBS and harvested by centrifugation at 1500 rpm for 5 minutes. 300 ill of 1 N NaOH containing 10% DMSO was added to the cell pellet and then incubated at 80° C. for 1 hour to dissolve melanin. Melanin content was calculated by the following equation.
Melanin content (%)=A/B×100
(§1) A: OD490 value of treated group
B: OD490 value of non-treated group

mushroom tyrosinase = assay: Mushroom tyrosinase inhibition assay; assay type: biochemical
Protocol: 60 μl of a 1 M phosphate buffer (pH 6.8), 10 μl of a sample solution, and 20 μl of 500 U/ml mushroom tyrosinase were sequentially added, and then incubated at room temperature for 5 minutes. After incubation, 60 μl of an aqueous solution containing 1 mM L-tyrosine was added to initiate a reaction. The reaction was performed at 37° C. for 30 minutes, and absorbance was measured at 490 nm. Mushroom tyrosinase inhibition activity was calculated by the following equation.
Mushroom tyrosinase inhibition activity (%)=(B−A)/A×100
as §1
B: OD490 value of blank control

[1] = system: tyrosinase in B16F10 cells; assay: Tyrosinase inhibition activity in B16F10 cells; assay type: cell-based, mouse; settings: α-MSH for one day, then 0.625, 1.25 and 2.5 mM, measured after 24 and 48 hours (FIG. 3)
Protocol: Cultured cells were harvested by adding […]. After harvesting, 500 μl of a cell lysis buffer (10 mM sodium phosphate buffer containing 1% Triton X-100 and 0.1 mM PMSF) was added to the harvested cells. To lyse the cells, sonication was performed on the cells and subsequently the cells were incubated on ice for 30 minutes. The lysed cells were centrifuged at 13000 rpm for 30 minutes, and the obtained cell lysate was used to measure tyrosinase activity.
To evaluate the inhibitory efficacy of verbenone against tyrosinase in B16F10 mouse melanoma cells, B16F10 cells were treated with α-MSH for one day to increase tyrosinase. Then, the cells were treated with verbenone at concentrations of 0.625, 1.25 and 2.5 mM, respectively, and tyrosinase activity was measured after 24 and 48 hours, respectively.

[2] = system: TRP-1, TRP-2, tyrosinase and MITF; assay: Western blot of melanogenesis-related proteins in B16F10 cells; assay type: cell-based, mouse
Protocol: After 24 hours, the cells were treated with verbenone at concentrations of 0.625, 1.25, and 2.5 mM, respectively, followed by culturing for 72 hours. The cultured cells were harvested and washed three times with PBS. Then, to lyse the cells, 500 μl of a lysis buffer was added to the cells and the cells were sonicated, followed by incubation for 30 minutes. After cell lysis, centrifugation was performed at 12,000 rpm and 4° C. for 30 minutes to obtain a supernatant. Protein concentration was quantified using bovine serum albumin (BSA) as a standard. Equivalent amounts of the denatured lysates were loaded onto a 12% sodium dodecyl sulfate-polyacrylamide gel, and electrophoresis was performed at 45 mA to separate proteins. After sodium dodecyl sulfate-polyacrylamide gel electrophoresis (SDS-PAGE), the separated proteins present in the gel were transferred onto a membrane at 150 V for 80 minutes. Then, blocking of the membrane was performed for overnight using TTBS (TBS+0.1% Tween 20) solution containing 5% skim milk. Primary antibodies against melanogenesis-related proteins and actin were prepared in a ratio of 1:1,000, and a primary antibody reaction was performed at room temperature for 3 hours. Anti-rabbit IgG and anti-mouse IgG were used as secondary antibodies and diluted 1:5,000. A secondary antibody reaction was performed at room temperature for 1 hour. […]

Row | SMILES | color of the cell pellet (B 16F10 melanoma cells; 20 nM α-MSH + 0.625, 1.25, 2.5 mM verbenone (FIG. 5)) | change in melanin content in B 16F10 cells (B 16F10 melanoma cells; screen of six rosemary components, various concentrations, 72 hours, 490 nm, compared to arbutin-treated cells (FIG. 1)) | melanin content in B16F10 cells (B 16F10 melanoma cells; α-MSH 24 hours, then 0.625, 1.25 and 2.5 mM, measured after 24 and 48 hours (FIG. 4)) | mushroom tyrosinase inhibition activity (mushroom tyrosinase; 2.5 and 5 mM verbenone (FIG. 2)) | tyrosinase activity in B16F10 cells [1] | expression levels of the melanogenesis-related proteins ([2]; 20 nM α-MSH for 24 hours, then 0.625, 1.25, 2.5 mM, western blotting (FIG. 6A)) | expression levels of melanogenesis-related proteins TRP-1, TRP-2, tyrosinase and MITF ([2]; without α-MSH, 0.625, 1.25, 2.5 mM, 72 hours, western blotting (FIG. 6B)) | mushroom tyrosinase inhibition activity (mushroom tyrosinase; kojic acid control at 200, 400 or 800 μM (FIG. 2))
1 | CC1=CC(=O)[C@@H]2C[C@H]1C2(C)C [verbenone] | weakened by verbenone in a concentration-dependent manner | most significantly decreased | reduced by verbenone in B16F10 cells in a concentration-dependent manner | no inhibitory effect was observed | inhibited tyrosinase in B16F10 cells | reduced in the verbenone-treated group in a concentration-dependent manner | decreased by verbenone in a concentration-dependent manner | 
2 | O=c1cc(CO)occ1O [kojic acid, reference compound] |  |  |  |  |  |  |  | observed in a concentration-dependent manner
